Measurements from PubChem BioAssay (NCI).
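Five concentrations, 48 hours, 96-well plates. TGI: concentration producing complete growth inhibition.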

Experiments:
Experiment in all cases: NCI tumour cell line growth inhibition, 48 h
[1] = test system: 786-0 renal
[2] = test system: A498 renal
[3] = test system: A549 NSCLC
[4] = test system: ACHN renal
[5] = test system: BT-549 breast
[6] = test system: CAKI-1 renal
[7] = test system: CCRF-CEM leukemia
[8] = test system: COLO 205 colon
[9] = test system: DU-145 prostate
[10] = test system: EKVX NSCLC
[11] = test system: HCC-2998 colon
[12] = test system: HCT-116 colon
[13] = test system: HCT-15 colon
[14] = test system: HL-60(TB) leukemia
[15] = test system: HOP-62 NSCLC
[16] = test system: HOP-92 NSCLC
[17] = test system: HS 578T breast
[18] = test system: HT29 colon
[19] = test system: IGROV1 ovarian
[20] = test system: K-562 leukemia
[21] = test system: KM12 colon
[22] = test system: LOX IMVI melanoma
[23] = test system: M14 melanoma
[24] = test system: MALME-3M melanoma
[25] = test system: MCF7 breast
[26] = test system: MDA-MB-231 breast
[27] = test system: MDA-MB-435
[28] = test system: MDA-N
[29] = test system: NCI-H226 lung
[30] = test system: NCI-H23 lung
[31] = test system: NCI-H460 lung
[32] = test system: NCI-H522 lung
[33] = test system: NCI/ADR-RES ovarian
[34] = test system: OVCAR-3 ovarian
[35] = test system: OVCAR-4 ovarian
[36] = test system: OVCAR-5 ovarian
[37] = test system: OVCAR-8 ovarian
[38] = test system: PC-3 prostate
[39] = test system: RPMI-8226 leukemia
[40] = test system: RXF 393 renal
[41] = test system: SF-268 CNS
[42] = test system: SF-295 CNS
[43] = test system: SF-539 CNS
[44] = test system: SK-MEL-2 melanoma
[45] = test system: SK-MEL-28 melanoma
[46] = test system: SK-MEL-5 melanoma
[47] = test system: SK-OV-3 ovarian
[48] = test system: SN12C renal
[49] = test system: SNB-19 CNS
[50] = test system: SNB-75 CNS
[51] = test system: SR leukemia
[52] = test system: SW-620 colon
[53] = test system: T-47D breast
[54] = test system: TK-10 renal
[55] = test system: U251 CNS
[56] = test system: UACC-257 melanoma
[57] = test system: UACC-62 melanoma
[58] = test system: UO-31 renal
[59] = test system: MOLT-4 leukemia

## O=C(Cc1csc2[n+]1C(=O)/C(=C/c1ccc(Cl)cc1)S2)Nc1ccccc1
[1]
  TGI: 90.9 µM
[2]
  TGI: 40.1 µM
[3]
  TGI: 84.6 µM
[4]
  TGI: 61.6 µM
[5]
  TGI: 60.3 µM
[6]
  TGI: > 100 µM
[7]
  TGI: > 100 µM
[8]
  TGI: 30.2 µM
[9]
  TGI: > 100 µM
[10]
  TGI: 53.4 µM
[11]
  TGI: 39.3 µM
[12]
  TGI: 42.5 µM
[13]
  TGI: 90.6 µM
[14]
  TGI: 74.2 µM
[15]
  TGI: 30.4 µM
[16]
  TGI: 78.4 µM
[17]
  TGI: > 100 µM
[18]
  TGI: 76.1 µM
[19]
  TGI: > 100 µM
[20]
  TGI: > 100 µM
[21]
  TGI: 82.8 µM
[22]
  TGI: 34.4 µM
[23]
  TGI: > 100 µM
[24]
  TGI: 90.6 µM
[25]
  TGI: 66.1 µM
[26]
  TGI: 37.3 µM
[27]
  TGI: 95 µM
[28]
  TGI: > 100 µM
[29]
  TGI: 49.6 µM
[30]
  TGI: 91.3 µM
[31]
  TGI: 48.8 µM
[32]
  TGI: 40.5 µM
[33]
  TGI: 82.4 µM
[34]
  TGI: 27.7 µM
[35]
  TGI: > 100 µM
[36]
  TGI: 80.9 µM
[37]
  TGI: > 100 µM
[38]
  TGI: 41.3 µM
[39]
  TGI: > 100 µM
[40]
  TGI: 42.6 µM
[41]
  TGI: 78 µM
[42]
  TGI: > 100 µM
[43]
  TGI: 84.2 µM
[44]
  TGI: 37 µM
[45]
  TGI: > 100 µM
[46]
  TGI: 26.6 µM
[47]
  TGI: 99.5 µM
[48]
  TGI: > 100 µM
[49]
  TGI: > 100 µM
[50]
  TGI: 94.6 µM
[51]
  TGI: > 100 µM
[52]
  TGI: > 100 µM
[53]
  TGI: > 100 µM
[54]
  TGI: 87.7 µM
[55]
  TGI: 32.1 µM
[56]
  TGI: 58.3 µM
[57]
  TGI: 32 µM
[58]
  TGI: > 100 µM

## COC(=O)C1C(=O)C(C(=O)OC)C2CCC1N2C (stereo not given)
[1]
  TGI: > 100 µM
[2]
  TGI: > 100 µM
[3]
  TGI: > 100 µM
[4]
  TGI: > 100 µM
[5]
  TGI: 27.3 µM
[6]
  TGI: > 100 µM
[7]
  TGI: > 78.1 µM
[8]
  TGI: > 100 µM
[9]
  TGI: > 100 µM
[10]
  TGI: > 100 µM
[11]
  TGI: > 100 µM
[12]
  TGI: > 83.2 µM
[13]
  TGI: > 100 µM
[14]
  TGI: > 65.8 µM
[15]
  TGI: > 100 µM
[16]
  TGI: > 77.3 µM
[17]
  TGI: > 100 µM
[18]
  TGI: > 100 µM
[19]
  TGI: > 100 µM
[20]
  TGI: > 100 µM
[21]
  TGI: > 100 µM
[22]
  TGI: > 83.1 µM
[23]
  TGI: > 100 µM
[24]
  TGI: 51.9 µM
[25]
  TGI: > 100 µM
[26]
  TGI: > 100 µM
[27]
  TGI: > 79.3 µM
[28]
  TGI: 73.8 µM
[59]
  TGI: > 57.9 µM
[29]
  TGI: > 94.9 µM
[31]
  TGI: > 100 µM
[32]
  TGI: > 100 µM
[33]
  TGI: > 100 µM
[34]
  TGI: > 72.1 µM
[35]
  TGI: > 100 µM
[36]
  TGI: > 100 µM
[37]
  TGI: > 100 µM
[38]
  TGI: > 100 µM
[39]
  TGI: > 100 µM
[40]
  TGI: > 100 µM
[41]
  TGI: > 100 µM
[42]
  TGI: > 100 µM
[43]
  TGI: > 100 µM
[44]
  TGI: 63.5 µM
[45]
  TGI: > 100 µM
[46]
  TGI: > 100 µM
[47]
  TGI: > 100 µM
[48]
  TGI: > 100 µM
[49]
  TGI: > 100 µM
[50]
  TGI: > 100 µM
[51]
  TGI: > 100 µM
[52]
  TGI: > 100 µM
[53]
  TGI: > 100 µM
[54]
  TGI: > 100 µM
[55]
  TGI: > 100 µM
[56]
  TGI: > 100 µM
[57]
  TGI: > 100 µM
[58]
  TGI: > 100 µM

## COc1ccc(/C(=N/Nc2nc3ccccc3n2Cc2ccccc2)C(=O)O)cc1
[1]
  TGI: 42.3 µM
[2]
  TGI: 44.5 µM
[3]
  TGI: > 100 µM
[4]
  TGI: > 100 µM
[5]
  TGI: > 100 µM
[6]
  TGI: 45.8 µM
[7]
  TGI: 27.8 µM
[8]
  TGI: > 100 µM
[9]
  TGI: > 100 µM
[10]
  TGI: > 100 µM
[11]
  TGI: 48.3 µM
[12]
  TGI: > 100 µM
[13]
  TGI: > 100 µM
[14]
  TGI: 11.5 µM
[15]
  TGI: > 100 µM
[16]
  TGI: 49.1 µM
[17]
  TGI: > 100 µM
[18]
  TGI: > 100 µM
[19]
  TGI: 40.7 µM
[20]
  TGI: 68.5 µM
[21]
  TGI: > 100 µM
[22]
  TGI: 35.5 µM
[23]
  TGI: 38.9 µM
[24]
  TGI: 91.7 µM
[25]
  TGI: 51.2 µM
[26]
  TGI: 80.2 µM
[27]
  TGI: > 100 µM
[28]
  TGI: > 100 µM
[59]
  TGI: 79.6 µM
[29]
  TGI: 63 µM
[30]
  TGI: 43.3 µM
[31]
  TGI: 21.4 µM
[32]
  TGI: 68.8 µM
[33]
  TGI: 54 µM
[34]
  TGI: > 100 µM
[35]
  TGI: 62.2 µM
[36]
  TGI: > 100 µM
[37]
  TGI: > 100 µM
[38]
  TGI: > 100 µM
[39]
  TGI: 55.8 µM
[41]
  TGI: 63.2 µM
[42]
  TGI: > 100 µM
[43]
  TGI: 85.1 µM
[44]
  TGI: > 100 µM
[45]
  TGI: > 100 µM
[46]
  TGI: 37.6 µM
[47]
  TGI: 55 µM
[48]
  TGI: > 100 µM
[49]
  TGI: > 100 µM
[50]
  TGI: 81.9 µM
[51]
  TGI: 9.88 µM
[52]
  TGI: > 100 µM
[53]
  TGI: 70.7 µM
[54]
  TGI: > 100 µM
[55]
  TGI: > 100 µM
[56]
  TGI: > 100 µM
[57]
  TGI: 21.4 µM
[58]
  TGI: 76.5 µM

## COc1cc2c(SCCN(C)C)nc3ccccc3c2c2ccccc12
[1]
  TGI: 3.76 µM
[2]
  TGI: 35.8 µM
[3]
  TGI: 3.08 µM
[4]
  TGI: 3.64 µM
[5]
  TGI: 21.7 µM
[6]
  TGI: 3.87 µM
[7]
  TGI: 4.56 µM
[8]
  TGI: 3.75 µM
[9]
  TGI: 15.8 µM
[10]
  TGI: 4.08 µM
[11]
  TGI: 2.88 µM
[12]
  TGI: 2.83 µM
[13]
  TGI: 3.31 µM
[15]
  TGI: 2.81 µM
[16]
  TGI: 5.83 µM
[17]
  TGI: 8.61 µM
[18]
  TGI: > 100 µM
[19]
  TGI: 2.77 µM
[20]
  TGI: > 100 µM
[21]
  TGI: 2.69 µM
[23]
  TGI: 3.46 µM
[24]
  TGI: 3.99 µM
[25]
  TGI: 3.02 µM
[26]
  TGI: 5.52 µM
[27]
  TGI: 3.3 µM
[28]
  TGI: 4.87 µM
[59]
  TGI: 8.14 µM
[29]
  TGI: 8.12 µM
[30]
  TGI: 15 µM
[31]
  TGI: 3.33 µM
[32]
  TGI: 2.79 µM
[33]
  TGI: 16.5 µM
[34]
  TGI: 7.79 µM
[35]
  TGI: 9.22 µM
[36]
  TGI: 4.03 µM
[38]
  TGI: 8.24 µM
[39]
  TGI: 4.23 µM
[40]
  TGI: 4.29 µM
[41]
  TGI: 5.39 µM
[42]
  TGI: 3.45 µM
[43]
  TGI: 3.61 µM
[44]
  TGI: 4.03 µM
[45]
  TGI: 3.17 µM
[46]
  TGI: 3.08 µM
[47]
  TGI: 25.6 µM
[48]
  TGI: 6.41 µM
[49]
  TGI: 8.14 µM
[50]
  TGI: 8.32 µM
[51]
  TGI: 4.42 µM
[52]
  TGI: 3.64 µM
[53]
  TGI: 7.66 µM
[54]
  TGI: 7.23 µM
[55]
  TGI: 4.32 µM
[56]
  TGI: 3.38 µM
[57]
  TGI: 3.12 µM
[58]
  TGI: 8.09 µM
